Experimental data published in PubChem BioAssay (NCI).
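At the GI50, growth is halved. Definition used: TGI = concentration required for complete inhibition of growth.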

How the values were obtained:
Experiment in all cases: inhibition of tumour cell growth, NCI panel, 384-well format
[1] = system: UACC-62 melanoma
[2] = system: SF-268 CNS
[3] = system: CCRF-CEM leukemia
[4] = system: SK-MEL-2 melanoma
[5] = system: OVCAR-3 ovarian
[6] = system: HOP-92 NSCLC
[7] = system: CAKI-1 renal
[8] = system: NCI-H322M lung
[9] = system: HL-60(TB) leukemia
[10] = system: SK-MEL-5 melanoma
[11] = system: SR leukemia
[12] = system: A549 NSCLC
[13] = system: HCT-15 colon

`CCNC(=O)c1cc2c(-c3cc(C(C)(C)O)ccc3Oc3c(C)cc(F)cc3C)cn(C)c(=O)c2[nH]1` gave a GI50 [1] of 152 nM, a TGI [1] of 4060 nM and a GI50 [2] of 2290 nM. The TGI [2] was 11400 nM, the GI50 [3] was 1030 nM and the TGI [3] was 2370 nM. The GI50 [4] was 139 nM, the TGI [4] was 2850 nM and the GI50 [5] was 602 nM. The TGI [5] was 2460 nM, the GI50 [6] was 1430 nM and the TGI [6] was 11800 nM. It also gave a GI50 [7] of 265 nM, a TGI [7] of 10700 nM and a GI50 [8] of 1610 nM. For the same molecule, the TGI [8] was 11900 nM, the GI50 [9] was 145 nM and the TGI [9] was 618 nM. It also gave a GI50 [10] of 1270 nM, a TGI [10] of 3680 nM and a GI50 [11] of 32.8 nM. It also gave a TGI [11] of 1300 nM, a GI50 [12] of 1510 nM and a TGI [12] of 12000 nM. It also gave a GI50 [13] of 1600 nM and a TGI [13] of 5230 nM.
